In data set [1] the test system is healthy controls. The data set is described as follows: Sucrose leak test before and after five days of omeprazole or famotidine. It is filed as in vivo, human. Here is the method:
An 8 hour overnight urine sample was collected in a container with 5 ml of 10% thymol in isopropanol as antimicrobial preservative. A courier service picked up urine containers at the patient's home and delivered them to the research laboratory. Total urine volume and refractive index were measured and recorded. […] This amount of sucrose equates to the amount of sucrose which leaked from the upper GI lumen.
H-2 blockers such as PEPCID® (famotidine) also cause a GI leak. The instant study was first performed with 20 subjects, all healthy controls. Randomly 10 were put on PPIs (20 mg of omeprazole), 10 on H-2 blockers (40 mg of famotidine). These amounts are standard for acid suppression therapy. […] They were given doses of these drugs in the morning for five days. A sucrose leak test was done the night of the fifth and last day.
Therefore, a second H-2 blocker study was performed looking at leak in an n=5 group but doing evening doses of famotidine and maintaining the other aspects of the above study, with the post H-2 blocker leak test performed again the night of the 5th dose, but now only with a 4-6 hours after the 5th and final dose.

Data set [2] deals with rat gastric corpus mucosa. The data set is described as follows: Transepithelial flux of 14C-labeled probes (mannitol, sucrose, polyethylene glycol) before and after PPI. As to conditions: for Post-Omeorazole transmucosal flux / Pre-Omeorazole transmucosal flux: mean +/- SE, 3 experiments; for Pre-Omeorazole transmucosal flux: before 200 μM omeprazole. Here is the method:
In each experiment, one adult male Sprague Dawley rat was sacrificed by decapitation. The stomach was removed, flushed, and stripped of its outer serosal membrane, while being frequently moistened with chilled, unbuffered saline. Two pieces of corpus mucosa were mounted in modified Ussing chambers, with exposed tissue surface area of 1.13 cm^2. Chambers were connected to gas-lift reservoirs, with a fluid volume of 17 mL per hemichamber. The mucosal hemichamber was filled with unbuffered saline (with 17 mM glucose) and kept aerated and perfused with 100% O2 at 37° C. […] Water-jacketed reservoirs maintained chamber saline at 37° C.
KRB was adjusted to a pH of 7.3-7.4.
Unbuffered saline was gassed with 100% O2 and was used to bathe the mucosal side of the gastric mucosa.
Approximately 30 minutes after tissues were mounted in Ussing chambers, dibutyrl cyclic AMP (dB-cAMP) (Sigma, St. Louis, Mo.) was added to the serosal sides of both chambers to a concentration of 1 mM in order to stimulate acid output by the tissue.
Three experiments were performed with each PPI, examining gastric permeability to ^14C-mannitol.
Three experiments were performed at each omeprazole concentration.

Data set [3] concerns healthy controls. The data set is described as follows: Sucrose permeability test, time course and reversibility of the esomeprazole-induced leak. It is filed as in vivo, human. Conditions: for durations with statistically significant elevation of sucrose leak: esomeprazole 40 mg once/day for 1, 2, 3, 5, 7 or 9 days, P<0.05. The method, then: Healthy controls were recruited without regard to gender or ethnicity, from an age range of 18-80. Their exclusion criteria were no prior gastrointestinal surgery and no current gastrointestinal disease. Because of the nature of the permeability test being used, diabetics and those with renal insufficiency were likewise excluded. Those participating did so only after personally signing an informed consent that was approved prior by the Lankenau Hospital Institutional Review Board. […] An 8 hour overnight urine sample was collected in a container with 5 ml of 10% thymol in isopropanol as antimicrobial preservative. A courier service picked up urine containers at the patient's home and delivered them to the research laboratory. Total urine volume and refractive index were measured and recorded. […] This amount of sucrose equates to the amount of sucrose which leaked from the upper GI lumen. The next study was begun to reduce the (disease) variables that may be at play in working with a GERD population and simultaneously assess the time course with which a PPI leak may establish. As described above, a volunteer group of healthy controls without any active GI disease or prior surgeries was recruited. Volunteers were randomly assigned to duration groups of 1, 2, 3, 5, 7 or 9 days. […] As in FIG. 2, a rising bar indicates greater leak in the second test, a falling bar indicates a lower leak at the second test. […] However the average leak of the second test was greater than the first by the second day and then consistently climbed further out through the nine days. […] The figure gives the average leak of the first (pre esomeprazole) test, the second test and the third (4 day post-esomeprazole) test. Although the second test is statistically different from the first or the third (P<0.01), the third test is not statistically different from the first, evidencing the relative rapid reversibility of the leak phenomenon.

For data set [4], the system named is first-time-presenting GERD patients. Put plainly: Sucrose permeability test before and at the end of an 8 week course of esomeprazole (NEXIUM). The class given is in vivo, human. Here is the method:
Patients with GERD were recruited from a primary care practice, to which they were presenting for the first time with their disease. […] With the exception of their GERD, these patients met the above criteria at the time of their recruitment, and were recruited in a similar manner. […] An 8 hour overnight urine sample was collected in a container with 5 ml of 10% thymol in isopropanol as antimicrobial preservative. A courier service picked up urine containers at the patient's home and delivered them to the research laboratory. Total urine volume and refractive index were measured and recorded. […] This amount of sucrose equates to the amount of sucrose which leaked from the upper GI lumen. The next study posed the question of whether PPI therapy would improve barrier function in the upper GI tract by allowing for reduction of mucosal inflammation and damage ensuing from esophagitis and gastritis. An early hypothesis was that PPI therapy would improve barrier function in the upper GI tract of first-time-presenting GERD patients, by allowing for reduction of mucosal inflammation and damage ensuing from any esophagitis or gastritis. […] As previously mentioned, this was in contrast to an earlier study (Mullin et al. (2006) Dig. Dis. Sci., 51:2326-36) which utilized GERD patients who had been previously diagnosed and under the care of a gastroenterologist. […] A 4 week follow up check was performed on all patients, and all reported significant symptom improvement with mild if any side effects.

Data set [5] relates to rat gastric corpus mucosa. The data set is described as follows: Acid secretion (mucosal fluid pH) of dB-cAMP stimulated tissue in Ussing chambers. As to conditions: ex vivo addition; 200 μM omeprazole, 200 μM lansoprazole, 100 μM esomeprazole. Here is the method: Water-jacketed reservoirs maintained chamber saline at 37° C.
In order to confirm stimulation of acid secretion by secretagogue addition and to verify the efficacy of the PPI, mucosal fluid compartment pH was recorded at intervals throughout the experiment with a manual electrode (Denver Instruments, Denver, Colo.). Ag/AgCl voltage and current electrodes were used to measure PD (potential difference) and ISC (short circuit current) approximately every five minutes for the duration of the experiment, as previously described (Hameed et al. (2004) Dig. Dis. Sci., 49:1381-1386), using two single-channel current/voltage clamps (McGrath Research and Technology). Ohm's Law was used to calculate transepithelial electrical resistance across the tissue.
Mucosal and serosal saline pH measurements were taken at approximately five minute intervals using a manual electrode (Denver Instruments) to ensure that the tissue was secreting acid. Mucosal pH readings were also taken before and after the addition of omeprazole to document the action of omeprazole on inhibiting acid secretion. Tissue viability was confirmed at the end of each experiment by tissue exposure to 10 mM amiloride in the mucosal fluid compartment in order to inhibit short circuit current.

Data set [6] has as its system rat gastric corpus mucosa. Put plainly: Transepithelial drug flux studies (3H-digoxin, 14C-phenytoin, mucosal to serosal) before and after omeprazole or DMSO. The class given is in vitro ADME. Conditions: 0.1 mM probe. The method, then:
Sprague Dawley male rats weighing approximately 400 grams were sacrificed by decapitation and the stomach was quickly removed, cut along the greater curvature, and flushed of luminal contents. The serosal membrane was then stripped from the corpus region and two equal sized pieces of corpus mucosa were mounted in two separate Ussing chambers with exposed tissue areas of 1.13 cm^2. Chambers were connected to 15 mL gas-lift reservoirs filled with un-buffered saline aerated with 100% O2 and bicarbonate-buffered saline aerated with 95% O2/5% CO2 on the mucosal and serosal sides, respectively. Saline temperature was held constant at 37° C. by a jacketed water bath surrounding the reservoirs. 30 minutes at 37° C. was allowed for tissue equilibration. In paired experiments, one tissue served as (vehicle) ‘control’, and the other as omeprazole-treated ‘experimental’.
After 30 minutes of tissue equilibration time in Ussing chambers, dibutyrl cyclic AMP (dBcAMP) (Sigma) was added to a final concentration of 1 mM to the serosal fluid chambers to stimulate acid secretion. […] The addition of the isotope marked the beginning of the flux period. 150 μL or 250 μL samples were taken from the serosal fluid compartment (opposite from which the isotope was added) for liquid scintillation counting (LSC). Samples were initially taken at 30 minute intervals for 90 minutes for the ^14C-phenytoin flux or at 15 minute intervals for 75 minutes for the ^3H-digoxin flux to establish the basal permeability rate (ρmoles/min/cm^2) across the tissue. 200 μM omeprazole (Sigma) (in DMSO) was then added to the mucosal and serosal sides of one chamber and an equivalent amount of DMSO (Sigma) was also added to both sides of the control chamber. Another series of serosal fluid samples were taken for LSC at 15 or 30 minute intervals for the remaining 60 minutes of ^3H-digoxin or ^14C-phenytoin flux experiments, respectfully, to determine flux rate of the radiolabeled drugs after omeprazole addition. In all cases of fluid sampling for liquid scintillation counting, an equal amount of fresh buffered saline was added back to the serosal side to prevent hydrostatic gradients from developing across the tissue. The flux of each isotope (ρmole/min/cm^2) was determined by calculating the linear regression slope of the graph of cpm versus time, and converting cpm to picomoles after determining the specific activity of the drug in the mucosal fluid.
To observe if the omeprazole-induced leak allows for permeation of certain small molecule drugs, ^3H-digoxin was added to the mucosal fluid compartment and saline samples were taken at 15 minute intervals from the serosal fluid compartments for a 135-minute flux period. Omeprazole and/or DMSO were added to their respective tissues 75 minutes after the addition of the isotope. Radioactivity present in the serosal fluid compartment was measured as a function of time before and after the addition of omeprazole or DMSO.

Where [7] appears, read: 0.1 mM 14C-labeled probe, after 200 μM omeprazole.

SMILES strings stand for the structures. Where “and” joins values, the source holds several entries; their conditions need not be identical. Equal values may be shown once.

In the data set with healthy controls [1] (baseline before medication, n=10 per group, SEM), `NC(N)=Nc1nc(CSCCC(N)=NS(N)(=O)=O)cs1` [famotidine] came in with a pre-med sucrose leak of 50 mg. Besides, the “pre H-2 blocker leak, second study” value with healthy controls [1] (baseline, n=5, SEM) was 46 mg. Besides, the “post H-2 blocker leak, second study” value in the data set on healthy controls [1] (evening doses of famotidine, test 4-6 hours after 5th dose, n=5, P=0.03) was 132 mg. The “post med sucrose leak” value with healthy controls [1] (morning doses for five days (20 mg omeprazole or 40 mg famotidine), test night of fifth day, n=10) was 110 mg.

`COc1ccc2nc([S@@+]([O-])Cc3ncc(C)c(OC)c3C)[nH]c2c1` [esomeprazole]: the “% Increase in Flux of 14C-[D]-mannitol” value is given as 101.62% in data set [2] (100 μM PPI) and 101.62 +/− 10.04% in data set [2] (100 μM PPI, listed as Esomeprazole). Besides, the “sucrose leak in third test (reversibility)” value in the data set on healthy controls [3] (4 days after finishing 5, 7 or 9 day esomeprazole course, n=9) was “decreases to near baseline”. Further, in the data set with healthy controls [3] (day 9 of esomeprazole 40 mg once/day), the “leak in second test greater than first (pre esomeprazole) test, average” value is reported as roughly 400 mg. The “durations with statistically significant elevation of sucrose leak” value was “fifth day” with healthy controls [3]; 5, 7 and 9 day durations with healthy controls [3] (listed as NEXIUM®). Further, the “average initial sucrose leak” value in data set [4] (before esomeprazole, 26 patients, mean, SEM) is listed as 72 mg. Also, the “average initial leak, all patients” value in data set [4] (before esomeprazole, all 37 patients) was 179 mg. Besides, the “patients whose post-NEXIUM sucrose leak was smaller” value in data set [4] (end of 8 week course vs before) was 4 of 25. Besides, the “patients whose post-NEXIUM sucrose leak was greater” value in data set [4] (end of 8 week course vs before, total sucrose in overnight urine) is 21 of 26. Also, the “patients with increased leak above the 200 mg threshold level” value in data set [4] (end of 8 week esomeprazole 40 mg/day) is given as 14 of 21. The “mean final sucrose leak” value in data set [4] (end of 8 week esomeprazole 40 mg/day, 26 patients, mean, SEM) is given as 325 mg. For the same compound, the “final leak, all patients” value in data set [4] (end of 8 week esomeprazole 40 mg/day, all 37 patients) is 307 mg. For the same compound, in data set [5], the “effect on acid secretion (rate of mucosal acidification)” value is on record as “inhibited acid secretion”.

For the compound `Cc1c(OCC(F)(F)F)ccnc1C[S+]([O-])c1nc2ccccc2[nH]1` (centres unmarked) [lansoprazole, 2-(((3-methyl-4-(2,2,2-trifluoro-ethoxy)-2-pyridinyl)methyl)sulfinyl)-1H benzimidazole], the “% Increase in Flux of 14C-[D]-mannitol” value in data set [2] (200 μM PPI) is reported as 83.35%; in data set [2] (200 μM PPI, listed as Lansoprazole) it was 83.35 +/− 20.71%. Further, the “effect on acid secretion (rate of mucosal acidification)” value in data set [5] was “inhibited acid secretion”.

Take `OC[C@@H](O)[C@@H](O)[C@H](O)[C@H](O)CO` [[D]-Mannitol]: in data set [2] (setting [7]), the “% Increase in Flux” value was 68.72% and 68.72 +/− 8.32%; the Post-Omeorazole transmucosal flux is recorded as 37.81 +/− 1.32 ρmoles/min/cm^2. In addition, the Pre-Omeorazole transmucosal flux in data set [2] (0.1 mM 14C-labeled probe) is recorded as 22.45 +/− 0.61 ρmoles/min/cm^2. In addition, in data set [6] (200 μM omeprazole), the “% Increase in Flux After Omeprazole” value is recorded as 68.7% ± 8.4%. In data set [6] (after 200 μM omeprazole, corrected by TLC), the “Post-Omeprazole Flux Value” was 31.6 ± 3.9 ρmole/min/cm^2. The “Pre-Omeprazole Flux Value” in data set [6] (before 200 μM omeprazole, 3 experiments) is listed as 21.2 ± 5.3 ρmole/min/cm^2. Also, the “% Increase in Flux After DMSO” value in data set [6] (vehicle control tissue) was 23.0% ± 15.3%. Further, the “Post-DMSO Flux Value” in data set [6] (vehicle control tissue, corrected by TLC) is 27.2 ± 2.4 ρmole/min/cm^2. Also, the “Pre-DMSO Flux Value” in data set [6] (vehicle control tissue, mean ± SEM, 3 experiments) is 22.7 ± 3.3 ρmole/min/cm^2.

Take `OC[C@H]1O[C@@](CO)(O[C@H]2O[C@H](CO)[C@@H](O)[C@H](O)[C@H]2O)[C@@H](O)[C@@H]1O` [Sucrose]: the Post-Omeorazole transmucosal flux in data set [2] (setting [7]) was 24.19 +/− 4.67 ρmoles/min/cm^2. For the same compound, in data set [2] (0.1 mM 14C-labeled probe), the Pre-Omeorazole transmucosal flux is 11.71 +/− 3.39 ρmoles/min/cm^2.
